The values below come from US20260297121A1, “MITHRAMYCIN (MTM) 2’ OXIMES” (University of Kentucky Research Foundation, priority 2023, published 2026).

pIC50: −log10 of the molar value. Like-named read-outs stand apart in the source and are kept apart here.

Data set [1] concerns PC3. The data set can be described thus: Cytotoxicity, resazurin fluorescence, PC3. Type of data set: cell-based. To be noted: Table 5; 72 hr. Here is the method: Exemplary compounds of the presently-disclosed subject matter were assessed for cytotoxicity (Table 5) in Ewing sarcoma (TC32) and non-Ewing (PC3 prostate cancer). […] Cells (1000-5000/well) were seeded in 96-well plates and allowed to attach and grow for 24 hr prior to adding compounds in half-log increments from 0.3 nM-10 μM. Cell viability was assessed after 72 hr continuous incubation with compounds using resazurin fluorescence. GI50 values were estimated using GraphPad Prism.

The next data set is described as follows: log P. Type of data set: physicochemical.
In data set [2] the test system is PC3. As to the kind of experiment: IC50 in PC3 cells. It counts as cell-based. To be noted: head prints PC2, text PC3. The procedure:
(§1) Exemplary compounds of the presently-disclosed subject matter were assessed for activity, including clearance, potency, and selectivity. Results from studies are compiled in Tables 2-4.
(§2) Desirable clearance was identified at lower values of mL hr^−1kg^−1 (e.g., about ≤10 mL hr^−1 kg^−1), desirable potency was identified at lower values of IC50 (e.g., about ≤10 nM in TC32 cells), and desired selectivity was identified at higher ratios of IC50 in PC3/IC50 in TC32 (e.g. about >10).

The nature of data set [3]: Clearance (CL) / pharmacokinetics. It counts as in vivo, mice. Here is the method:
as §1, §2
Pharmacokinetics of exemplary compounds of the presently-disclosed subject matter were studied in mice following bolus IV dosing. Groups of three mice were administered the compound(s) and blood samples were collected via saphenous bleed. Plasma was separated by centrifugation and extracted to quantitate analytes by LC/MS/MS. Sample analysis followed upon the system meeting system suitability criteria customary for fit for purpose analytical methods. FIG. 1A includes data comparing YL-C09 to mithramycin (MTM) dosed separately. FIG. 1B includes data for YL-B171, YL-C110 and MTM dosed in cassette format.

Another data set has as its system TC32 cells. The data set can be described thus: Potency IC50 in TC32 cells and selectivity. To be noted: Homo sapiens. It counts as cell-based. Here is the method:
as §1, §2

Setting [4] is: Homo sapiens, PC-3, read-out: IC50 PC2, Table 2.
Setting [5] is: TC-32, Table 2, read-out: IC50 TC32.

What is called log P is the decadic logarithm of the partition coefficient of the neutral form, usually between octanol and water. A low value points to a more hydrophilic compound. In turn, `CO[C@H](C(=NOCCNC(=O)c1[nH]c2ccc(C(F)(F)F)cc2c1-c1ccc(F)c(Cl)c1)[C@@H](O)[C@@H](C)O)[C@@H]1Cc2cc3cc(O[C@H]4C[C@@H](O[C@H]5C[C@@H](O)[C@H](O)[C@@H](C)O5)[C@H](O)[C@@H](C)O4)c(C)c(O)c3c(O)c2C(=O)[C@H]1O[C@H]1C[C@@H](O[C@H]2C[C@@H](O[C@H]3C[C@](C)(O)[C@H](O)[C@@H](C)O3)[C@@H](O)[C@@H](C)O2)[C@H](O)[C@@H](C)O1` [YL-C68] registered a GI50 PC3 in the data set on PC3 [1] greater than 1000 nM. In addition, in “log P” (Table 3), the “log P” value is on record as 4.54.
By pIC50 is commonly meant −log10 of the IC50, conventionally taken in molar units. Broadly, the clearance is the rate of elimination divided by the concentration. Low readings indicate inefficient removal, high ones efficient removal. What is called logP is a log measure of how a compound divides between an organic and an aqueous phase. High values mean a more lipophilic compound, low ones a more hydrophilic compound. Take `CO[C@H](C(=NOCCNC(=O)c1cc2cc(Cl)ccc2[nH]1)[C@@H](O)[C@@H](C)O)[C@@H]1Cc2cc3cc(O[C@H]4C[C@@H](O[C@H]5C[C@@H](O)[C@H](O)[C@@H](C)O5)[C@H](O)[C@@H](C)O4)c(C)c(O)c3c(O)c2C(=O)[C@H]1O[C@H]1C[C@@H](O[C@H]2C[C@@H](O[C@H]3C[C@](C)(O)[C@H](O)[C@@H](C)O3)[C@@H](O)[C@@H](C)O2)[C@H](O)[C@@H](C)O1` [YL-B152]: the pIC50 with PC3 [2] (setting [4]) was 7.75; with PC3 [2] (Homo sapiens, PC-3, read-out: IC50 PC2, Table 4), 7.75; in the data set on TC32 cells (setting [5]), 8.08; with TC32 cells (TC-32, Table 4, read-out: IC50 TC32) it was 8.08. This compound also gave a CL in data set [3] (Table 4) of 0.733 mL/min/kg. The “PK Improvement” value in data set [3] (Table 4) was found to be 35.9. In data set [3] (mouse, plasma, iv, Table 2), the clearance was 0.733 mL/min/kg. The values for the logP in “log P” (Table 2) and in “log P” (Table 4) were 2.19 and 2.2, respectively.
On to `CO[C@H](C(=NOCCNC(=O)c1nnc2nc(C)cc(C)n12)[C@@H](O)[C@@H](C)O)[C@@H]1Cc2cc3cc(O[C@H]4C[C@@H](O[C@H]5C[C@@H](O)[C@H](O)[C@@H](C)O5)[C@H](O)[C@@H](C)O4)c(C)c(O)c3c(O)c2C(=O)[C@H]1O[C@H]1C[C@@H](O[C@H]2C[C@@H](O[C@H]3C[C@](C)(O)[C@H](O)[C@@H](C)O3)[C@@H](O)[C@@H](C)O2)[C@H](O)[C@@H](C)O1` [YL-B162], for which the pIC50 is 5.52 in the data set on PC3 [2] (setting [4]) and 5.55 with TC32 cells (setting [5]). In addition, the logP in the data set “log P” (Table 2) is -0.56.
Taken in the same sequence, the figures for `CO[C@H](C(=NOCCNC(=O)c1cc2cc(Cl)cc(Cl)c2[nH]1)[C@@H](O)[C@@H](C)O)[C@@H]1Cc2cc3cc(O[C@H]4C[C@@H](O[C@H]5C[C@@H](O)[C@H](O)[C@@H](C)O5)[C@H](O)[C@@H](C)O4)c(C)c(O)c3c(O)c2C(=O)[C@H]1O[C@H]1C[C@@H](O[C@H]2C[C@@H](O[C@H]3C[C@](C)(O)[C@H](O)[C@@H](C)O3)[C@@H](O)[C@@H](C)O2)[C@H](O)[C@@H](C)O1` [YL-B167] were 7.32, 7.82 and 2.83.
For `COc1ccc2[nH]c(C(=O)NCCON=C([C@@H](O)[C@@H](C)O)[C@@H](OC)[C@@H]3Cc4cc5cc(O[C@H]6C[C@@H](O[C@H]7C[C@@H](O)[C@H](O)[C@@H](C)O7)[C@H](O)[C@@H](C)O6)c(C)c(O)c5c(O)c4C(=O)[C@H]3O[C@H]3C[C@@H](O[C@H]4C[C@@H](O[C@H]5C[C@](C)(O)[C@H](O)[C@@H](C)O5)[C@@H](O)[C@@H](C)O4)[C@H](O)[C@@H](C)O3)cc2c1` [YL-B166], in that order: 7.49, 8.63 and 1.56.
Regarding `CO[C@H](C(=NOCCNC(=O)c1ccc2scnc2c1)[C@@H](O)[C@@H](C)O)[C@@H]1Cc2cc3cc(O[C@H]4C[C@@H](O[C@H]5C[C@@H](O)[C@H](O)[C@@H](C)O5)[C@H](O)[C@@H](C)O4)c(C)c(O)c3c(O)c2C(=O)[C@H]1O[C@H]1C[C@@H](O[C@H]2C[C@@H](O[C@H]3C[C@](C)(O)[C@H](O)[C@@H](C)O3)[C@@H](O)[C@@H](C)O2)[C@H](O)[C@@H](C)O1` [YL-C61], the results for the pIC50 in the data set with PC3 [2] (setting [4]) and with TC32 cells (setting [5]) were 6.67 and 7.19, respectively. For the same compound, in “log P” (Table 2), the logP came out at 1.12.
In the case of `COC(C(=NOCCNC(=O)c1[nH]c2ccc(C(F)(F)F)cc2c1-c1ccccc1)C(O)C(C)O)C1Cc2cc3cc(OC4CC(OC5CC(O)C(O)C(C)O5)C(O)C(C)O4)c(C)c(O)c3c(O)c2C(=O)C1OC1CC(OC2CC(OC3CC(C)(O)C(O)C(C)O3)C(O)C(C)O2)C(O)C(C)O1` (stereo not shown) [YL-C66], in the data set on PC3 [2] (Table 3), the pIC50 was 6.55. Further, the CL in data set [3] (Table 3) and in data set [3] (Table 4) was 0.2 mL/min/kg throughout. The “PK Improvement” value in data set [3] (Table 4) was found to be 131.5. For the same compound, the “log P” value in the data set “log P” (Table 3) worked out at 3.84; in the data set “log P” (Table 4) it was 3.8.
In the case of `COC(C(=NOCCNC(=O)c1cc2cc(C(F)(F)F)ccc2[nH]1)C(O)C(C)O)C1Cc2cc3cc(OC4CC(OC5CC(O)C(O)C(C)O5)C(O)C(C)O4)c(C)c(O)c3c(O)c2C(=O)C1OC1CC(OC2CC(OC3CC(C)(O)C(O)C(C)O3)C(O)C(C)O2)C(O)C(C)O1` (stereo not shown) [YL-B175], the pIC50 was 8.82 in the data set on PC3 [2] (setting [4]) and 8.92 in the data set with TC32 cells (setting [5]). In “log P” (Table 2), the logP is 2.54.
For `CO[C@H](C(=NOCCNC(=O)c1cc2cc(-c3cnn(C)c3)ccc2[nH]1)[C@@H](O)[C@@H](C)O)[C@@H]1Cc2cc3cc(O[C@H]4C[C@@H](O[C@H]5C[C@@H](O)[C@H](O)[C@@H](C)O5)[C@H](O)[C@@H](C)O4)c(C)c(O)c3c(O)c2C(=O)[C@H]1O[C@H]1C[C@@H](O[C@H]2C[C@@H](O[C@H]3C[C@](C)(O)[C@H](O)[C@@H](C)O3)[C@@H](O)[C@@H](C)O2)[C@H](O)[C@@H](C)O1` [YL-C20], in that order: 5.99, 7.16 and 2.1.
In turn, `COC(C(=NOCCCNC(=O)c1[nH]c2ccc(Cl)cc2c1-c1ccc(Cl)cc1)C(O)C(C)O)C1Cc2cc3cc(OC4CC(OC5CC(O)C(O)C(C)O5)C(O)C(C)O4)c(C)c(O)c3c(O)c2C(=O)C1OC1CC(OC2CC(OC3CC(C)(O)C(O)C(C)O3)C(O)C(C)O2)C(O)C(C)O1` (stereo not shown) [YL-C95] gave a CL in data set [3] (Table 2) of 0.433 mL/min/kg. For the same compound, the GI50 PC3 with PC3 [1] is greater than 1000 nM. In “log P” (Table 2), the “log P” value is 4.69.
`CO[C@H](C(=NOCc1ccc2scnc2c1)[C@@H](O)[C@@H](C)O)[C@@H]1Cc2cc3cc(O[C@H]4C[C@@H](O[C@H]5C[C@@H](O)[C@H](O)[C@@H](C)O5)[C@H](O)[C@@H](C)O4)c(C)c(O)c3c(O)c2C(=O)[C@H]1O[C@H]1C[C@@H](O[C@H]2C[C@@H](O[C@H]3C[C@](C)(O)[C@H](O)[C@@H](C)O3)[C@@H](O)[C@@H](C)O2)[C@H](O)[C@@H](C)O1` [YL-C52]: the pIC50 with PC3 [2] (setting [4]) is 8.09; in the data set on TC32 cells (setting [5]) it was 8.19. In “log P” (Table 2), this compound displayed a lipophilicity (logP) of 1.87.
Taken in the same sequence, the figures for `COC(C(=NOCCNC(=O)c1cc2c(=O)n(C)c(=O)n(C)c2[nH]1)C(O)C(C)O)C1Cc2cc3cc(OC4CC(OC5CC(O)C(O)C(C)O5)C(O)C(C)O4)c(C)c(O)c3c(O)c2C(=O)C1OC1CC(OC2CC(OC3CC(C)(O)C(O)C(C)O3)C(O)C(C)O2)C(O)C(C)O1` (stereo not shown) [YL-B179] were 5.52, 6.17 and -0.02.
Regarding `COc1ccc2[nH]c(C(=O)NCCON=C([C@@H](O)[C@@H](C)O)[C@@H](OC)[C@@H]3Cc4cc5cc(O[C@H]6C[C@@H](O[C@H]7C[C@@H](O)[C@H](O)[C@@H](C)O7)[C@H](O)[C@@H](C)O6)c(C)c(O)c5c(O)c4C(=O)[C@H]3O[C@H]3C[C@@H](O[C@H]4C[C@@H](O[C@H]5C[C@](C)(O)[C@H](O)[C@@H](C)O5)[C@@H](O)[C@@H](C)O4)[C@H](O)[C@@H](C)O3)c(-c3ccc(Cl)cc3)c2c1` [YL-C114], in data set [3] (Table 2), the CL came out at 0.467 mL/min/kg. For the same compound, the “log P” value in the data set “log P” (Table 2) came out at 3.58.
On to `COc1cc2cc(C(=O)NCCON=C([C@@H](O)[C@@H](C)O)[C@@H](OC)[C@@H]3Cc4cc5cc(O[C@H]6C[C@@H](O[C@H]7C[C@@H](O)[C@H](O)[C@@H](C)O7)[C@H](O)[C@@H](C)O6)c(C)c(O)c5c(O)c4C(=O)[C@H]3O[C@H]3C[C@@H](O[C@H]4C[C@@H](O[C@H]5C[C@](C)(O)[C@H](O)[C@@H](C)O5)[C@@H](O)[C@@H](C)O4)[C@H](O)[C@@H](C)O3)[nH]c2cc1OC` [YL-B158], for which the pIC50 in the data set on PC3 [2] (setting [4]) is 6.52; with TC32 cells (setting [5]), 7.45. Besides, the logP in “log P” (Table 2) was determined as 1.28.
Take `COC(C(=NOCC(=O)Nc1cccc2cnccc12)C(O)C(C)O)C1Cc2cc3cc(OC4CC(OC5CC(O)C(O)C(C)O5)C(O)C(C)O4)c(C)c(O)c3c(O)c2C(=O)C1OC1CC(OC2CC(OC3CC(C)(O)C(O)C(C)O3)C(O)C(C)O2)C(O)C(C)O1` (stereo not shown) [YL-B160]: the pIC50 in the data set on PC3 [2] (setting [4]) was 5.95; in the data set on TC32 cells (setting [5]) it was 7.06. In “log P” (Table 2), the logP worked out at 1.3.
